Blank lines part the entries; values can stand above or below the compound they belong to.
Experiment: solvent given as SMILES

SMILES: CCC1(c2ccccc2)C(=O)NC(=O)NC1=O
solvation free energy, 298 K (in O): -15.4 kcal/mol

solvation free energy, 298 K (in C1CCCCC1): -4.89 kcal/mol
solvation free energy, 298 K (in CC(C)O): -5.03 kcal/mol
solvation free energy, 298 K (in CCC(C)O): -5.05 kcal/mol
solvation free energy, 298 K (in CCCO): -5.03 kcal/mol
solvation free energy, 298 K (in CCO): -5.43 kcal/mol
solvation free energy, 298 K (in O): -4.84 kcal/mol
SMILES: CC(=O)CC(C)=O

solvation free energy, 298 K (in C=CCCCCCCC=C): -4.98 kcal/mol
solvation free energy, 298 K (in C=CCCCCCCCCCCCCCC): -4.26 kcal/mol
SMILES: CC(N)=O

solvation free energy, 298 K (in O): -9.63 kcal/mol
SMILES: c1c[nH]cn1

solvation free energy, 298 K (in O): -2.87 kcal/mol
SMILES: c1ccc(Oc2ccccc2)cc1

SMILES: COS(=O)(=O)OC
solvation free energy, 298 K (in O): -5.1 kcal/mol

SMILES: Clc1cc2c(cc1Cl)Oc1ccccc1O2
solvation free energy, 298 K (in O): -3.56 kcal/mol

SMILES: Clc1c(Cl)c(Cl)c2c(c1Cl)Oc1c(Cl)c(Cl)c(Cl)c(Cl)c1O2
solvation free energy, 298 K (in O): -4.53 kcal/mol

SMILES: CC1CO1 (stereo not drawn)
solvation free energy, 298 K (in CC=O): -3.7 kcal/mol

solvation free energy, 298 K (in CCCO): -4.47 kcal/mol
solvation free energy, 298 K (in CO): -4.84 kcal/mol
solvation free energy, 298 K (in O): -2.84 kcal/mol
SMILES: CCCC(=O)OC

SMILES: Oc1ccccc1
solvation free energy, 298 K (in CC(C)CC(C)(C)C): -5.23 kcal/mol
solvation free energy, 298 K (in CCCCCCC): -4.97 kcal/mol
solvation free energy, 298 K (in CCCCCCCCCC): -5.49 kcal/mol
solvation free energy, 298 K (in Cc1ccc(C)cc1): -6.77 kcal/mol
solvation free energy, 298 K (in Cc1cccc(C)c1): -6.78 kcal/mol
solvation free energy, 298 K (in Cc1ccccc1C): -6.84 kcal/mol
solvation free energy, 298 K (in O): -6.62 kcal/mol

SMILES: Oc1cccc(O)c1
solvation free energy, 298 K (in CCCCCC): -5.78 kcal/mol
solvation free energy, 298 K (in CCCCCCC): -5.84 kcal/mol
solvation free energy, 298 K (in CCCCCCCC): -5.85 kcal/mol
solvation free energy, 298 K (in Cc1ccc(C)cc1): -8.35 kcal/mol
solvation free energy, 298 K (in Cc1cccc(C)c1): -8.33 kcal/mol
solvation free energy, 298 K (in Cc1ccccc1C): -8.33 kcal/mol
solvation free energy, 298 K (in O): -11.4 kcal/mol

solvation free energy, 298 K (in O): -1.14 kcal/mol
SMILES: CCCCCCCCCCCCCC(=O)OC

solvation free energy, 298 K (in O): -3.82 kcal/mol
SMILES: CCOC(=O)c1ccccc1O

SMILES: Clc1cc2c(cc1Cl)Oc1cc(Cl)c(Cl)cc1O2
solvation free energy, 298 K (in O): -3.37 kcal/mol

SMILES: Cc1ccc(C)c2ccccc12
solvation free energy, 298 K (in O): -2.82 kcal/mol

SMILES: CC(=O)C(C)(C)C
solvation free energy, 298 K (in CCCCCC): -4.34 kcal/mol
solvation free energy, 298 K (in CCCCCCC): -4.3 kcal/mol
solvation free energy, 298 K (in CCCCCCCC): -4.21 kcal/mol
solvation free energy, 298 K (in CCCCCCCCCC): -4.15 kcal/mol
solvation free energy, 298 K (in O): -3.11 kcal/mol

SMILES: FC(Cl)C(F)(F)F (stereo not drawn)
solvation free energy, 298 K (in CCCCCCCCO): -1.67 kcal/mol
solvation free energy, 298 K (in CN1CCCC1=O): -2.39 kcal/mol
solvation free energy, 298 K (in CN(C)C=O): -2.44 kcal/mol
solvation free energy, 298 K (in O): 0.79 kcal/mol

solvation free energy, 298 K (in CN1CCCC1=O): -4.91 kcal/mol
solvation free energy, 298 K (in CN(C)C=O): -4.77 kcal/mol
SMILES: C1=CCCCCCC1

solvation free energy, 298 K (in O): -4.7 kcal/mol
SMILES: CC(=O)c1ccc(C)cc1

SMILES: C#C
solvation free energy, 298 K (in C1COCCO1): -1.71 kcal/mol
solvation free energy, 298 K (in CC(C)=O): -1.83 kcal/mol
solvation free energy, 298 K (in CC(C)CC(C)(C)C): -0.37 kcal/mol
solvation free energy, 298 K (in CCCCCC): -0.52 kcal/mol
solvation free energy, 298 K (in CCCCO): -0.82 kcal/mol
solvation free energy, 298 K (in CN(C)C=O): -1.75 kcal/mol
solvation free energy, 298 K (in CO): -1.42 kcal/mol
solvation free energy, 298 K (in COC(C)=O): -1.76 kcal/mol
solvation free energy, 298 K (in Cc1ccc(C)cc1): -0.8 kcal/mol
solvation free energy, 298 K (in ClC(Cl)(Cl)Cl): -0.65 kcal/mol
solvation free energy, 298 K (in O): 0 kcal/mol

solvation free energy, 298 K (in O): -8.68 kcal/mol
SMILES: COc1c(O)c(OC)c(Cl)c(C=O)c1Cl

SMILES: Clc1cc(Cl)c(-c2c(Cl)cc(Cl)cc2Cl)c(Cl)c1
solvation free energy, 298 K (in CCCCCCCCO): -12.5 kcal/mol
solvation free energy, 298 K (in O): -1.96 kcal/mol

solvation free energy, 298 K (in O): -4.01 kcal/mol
SMILES: Clc1cccnc1

solvation free energy, 298 K (in NC=O): -5.43 kcal/mol
solvation free energy, 298 K (in O): -2.5 kcal/mol
SMILES: CCCCCCCC(C)=O

SMILES: FC(F)C(F)(F)F
solvation free energy, 298 K (in CCCCCCCC(=O)OCC(COC(=O)CCCCCCC)OC(=O)CCCCCCC): -0.79 kcal/mol
solvation free energy, 298 K (in CCCCCCCCC): -0.39 kcal/mol
solvation free energy, 298 K (in CCCCCCCCO): -0.57 kcal/mol
solvation free energy, 298 K (in CN(C)C=O): -1.54 kcal/mol
solvation free energy, 298 K (in O): 1.45 kcal/mol

solvation free energy, 298 K (in O): -6.08 kcal/mol
SMILES: C=C(C)C(=O)O

SMILES: CC#N
solvation free energy, 298 K (in Brc1cccc2ccccc12): -3.45 kcal/mol
solvation free energy, 298 K (in C1CCOC1): -4.3 kcal/mol
solvation free energy, 298 K (in C1COCCO1): -4.45 kcal/mol
solvation free energy, 298 K (in CC(=O)N(C)C): -4.8 kcal/mol
solvation free energy, 298 K (in CC(=O)OCc1ccccc1): -4.08 kcal/mol
solvation free energy, 298 K (in CC(C)=O): -3.83 kcal/mol
solvation free energy, 298 K (in CC(C)CCCC(C)CCCC(C)CCCCC(C)CCCC(C)CCCC(C)C): -1.87 kcal/mol
solvation free energy, 298 K (in CCC(C)=O): -4.46 kcal/mol
solvation free energy, 298 K (in CCCCCC): -2.41 kcal/mol
solvation free energy, 298 K (in CCCCCCC): -2.28 kcal/mol
solvation free energy, 298 K (in CCCCCCCC): -2.17 kcal/mol
solvation free energy, 298 K (in CCCCCCCCCCCCCCCC): -2.04 kcal/mol
solvation free energy, 298 K (in CCCCCCCCO): -3.15 kcal/mol
solvation free energy, 298 K (in CCCCCl): -3.63 kcal/mol
solvation free energy, 298 K (in CCCCN(C=O)CCCC): -4.08 kcal/mol
solvation free energy, 298 K (in CCCCO): -3.55 kcal/mol
solvation free energy, 298 K (in CCCCOCCCC): -2.89 kcal/mol
solvation free energy, 298 K (in CCO): -3.96 kcal/mol
solvation free energy, 298 K (in CCOC(C)=O): -4.19 kcal/mol
solvation free energy, 298 K (in CCOCC): -3.63 kcal/mol
solvation free energy, 298 K (in CN1CCCCC1=O): -4.65 kcal/mol
solvation free energy, 298 K (in CN(C)C=O): -4.65 kcal/mol
solvation free energy, 298 K (in CNC(C)=O): -4.23 kcal/mol
solvation free energy, 298 K (in CO): -4.04 kcal/mol
solvation free energy, 298 K (in COC(C)(C)C): -3.67 kcal/mol
solvation free energy, 298 K (in COC(C)=O): -4.53 kcal/mol
solvation free energy, 298 K (in Cc1ccc(C)cc1): -3.44 kcal/mol
solvation free energy, 298 K (in ClC(Cl)(Cl)Cl): -3.03 kcal/mol
solvation free energy, 298 K (in ClC(Cl)Cl): -4.43 kcal/mol
solvation free energy, 298 K (in ClCCCl): -4.41 kcal/mol
solvation free energy, 298 K (in ClCCl): -4.71 kcal/mol
solvation free energy, 298 K (in Clc1ccccc1): -3.74 kcal/mol
solvation free energy, 298 K (in NC=O): -4.37 kcal/mol
solvation free energy, 298 K (in O): -3.92 kcal/mol
solvation free energy, 298 K (in O=C1CCCCC1): -4.3 kcal/mol
solvation free energy, 298 K (in [2H]O[2H]): -4.1 kcal/mol
solvation free energy, 298 K (in c1ccc2ncccc2c1): -3.98 kcal/mol
